13 molecules from the SangsterLogP compilation can be followed below.

The data set in a line: method code SF, from DOI: 10.1016/0045-6535(88)90210-x.
`COc1cc(OC)c(Cl)cc1N` yielded a lipophilicity (logP) of 1.45. As for `CCc1ccccc1N`, the figure is 2.04. In turn, `Cc1ccc(N)c(C)c1` gave a logP of 2.13.

`CC(C)(C)c1cc(O)cc(C(C)(C)C)c1` yielded a logP of 4.64. In the case of `Cc1ccc(N)cc1Cl` it was 2.4; in that of `Oc1cc(Cl)c(Cl)c(Cl)c1Cl`, 4.37. In the case of `Oc1c(I)cc(I)cc1I`, the logP was determined as 4.5. On to `Cc1ccc(O)c(N)c1`, for which the logP was found to be 1.11. As for `OCCCl`, the figure is 0.03; as for `NC(=O)Nc1cccc(O)c1`, 0.36; as for `Nc1ccc([N+](=O)[O-])cc1[N+](=O)[O-]`, 1.9. In the case of `OCC(Br)CBr` (stereo not drawn) it was 0.9.

`CC(O)CO` (stereo not drawn) had a logP of -0.99.
